Series [1] deals with Aspergillus flavus. Put plainly: agar plate disc-diffusion, antifungal activity by inhibition zone. Format: cell-based. As to the method: (§1) The agar plate disc-diffusion method was applied. Sterilized filter papers (6 mm in diameter) were wetted with 10 μL of a solution of methyl 4-((5-(3-fluorophenyl)-4-phenyl-4H-1,2,4-triazol-3-ylthio)methyl)benzoate (III) to be tested, containing 10 mg/mL in DMSO, and the discs were allowed to air dry. The discs were then placed onto the surface of agar plates (nutrient agar for bacteria and Sabouraud's dextrose agar for fungi) seeded with the test organism. Each plate contained 15 mL of the agar medium, previously seeded with 0.2 mL of the broth culture of each organism pregrown for 18 hours. The plates were incubated at 37 °C for 48 hours, and 72 hours for fungi. The inhibition zones were measured in mm. Discs impregnated with DMSO were used as a control, and its inhibition zone was subtracted from the tested compound actual inhibition zone.
(In agar diffusion tests the substance spreads into inoculated agar from a disc or well.)

Series [2] deals with Chrysosporium keratinophilum. Described as above. The class given is cell-based. As to the method: as §1
Series [3] relates to Pseudomonas aeruginosa. The experiment in a line: agar plate disc-diffusion, antibacterial activity by inhibition zone. Format: cell-based. The note with it: Pseudomonas aeruginosa (Gram negative). As to the method: as §1
For series [4], the system named is Escherichia coli. The description is as above. Format: cell-based. The settings on record: Escherichia coli (Gram negative). On the procedure: as §1
For series [5], the system named is Staphylococcus aureus. The series is described as above. The class given is cell-based. The settings on record: Staphylococcus aureus (Gram positive). On the procedure:
as §1

The test system of series [6] is Bacillus Cereus. Described as above. The class given is cell-based. The note with it: Bacillus Cereus (Gram positive). As to the method:
as §1

Where [7] appears, read: A = concentration of comp. = 10,000 μL.
The mark [8] stands for this setting: B = concentration of comp. = 30,000 μL.
Setting [9] is: C = concentration of comp. = 50,000 μL.

As for `O=C(O)c1cn(C2CC2)c2cc(N3CCNCC3)c(F)cc2c1=O` [Cip., ciprofloxacin, reference compound], the inhibition zone in series [1] (setting [7]) is 29 mm; in series [1] (setting [8]), 30 mm; in series [1] (setting [9]), 42 mm; in series [2] (setting [7]) it was 29 mm; in series [2] (setting [8]), 30 mm; in series [2] (setting [9]), 53 mm. Moreover, the inhibition zone in series [3] (setting [7]) is listed as 29 mm; in series [3] (setting [8]), 30 mm; in series [3] (setting [9]) it was 53 mm; in series [4] (setting [7]), 30 mm; in series [4] (setting [8]) it was 39 mm; in series [4] (setting [9]), 60 mm. The inhibition zone in series [5] (setting [7]) stood at 43 mm; in series [5] (setting [8]) it was 44 mm; in series [5] (setting [9]) it was 53 mm; in series [6] (setting [7]), 29 mm; in series [6] (setting [8]), 30 mm; in series [6] (setting [9]), 42 mm.

In the case of `COC(=O)c1ccc(CSc2nnc(-c3cccc(F)c3)n2-c2ccccc2)cc1` [III, methyl 4-((5-(3-fluorophenyl)-4-phenyl-4H-1,2,4-triazol-3-ylthio)methyl)benzoate], the melting point was 185 to 186 °C. In series [1] (setting [7]), the inhibition zone was 19 mm. The same compound displayed an inhibition zone in series [1] (setting [8]) of 24 mm. In addition, the inhibition zone in series [1] (setting [9]) was 34 mm. Also, the inhibition zone in series [2] (setting [7]) is reported as 28 mm. The inhibition zone in series [2] (setting [8]) worked out at 30 mm. In series [2] (setting [9]), the inhibition zone is given as 49 mm. This compound returned an inhibition zone in series [3] (setting [7]) of 24 mm. Moreover, in series [3] (setting [8]), the inhibition zone is on record as 33 mm. Besides, the inhibition zone in series [3] (setting [9]) came to 40 mm. Also, the inhibition zone in series [4] (setting [7]) stood at 29 mm. In addition, in series [4] (setting [8]), the inhibition zone amounted to 38 mm. In addition, the inhibition zone in series [4] (setting [9]) came to 54 mm. The same compound returned an inhibition zone in series [5] (setting [7]) of 14 mm. In series [5] (setting [8]), this compound gave an inhibition zone of 20 mm. The inhibition zone in series [5] (setting [9]) is 23 mm. This compound also showed an inhibition zone in series [6] (setting [7]) of 28 mm. For the same compound, the inhibition zone in series [6] (setting [8]) amounted to 29 mm. In series [6] (setting [9]), this compound returned an inhibition zone of 40 mm.

As a reminder, the melting point is the temperature, or range, at which the solid turns liquid.

Source of the values: patent US12054464B1, “Methyl 4-((5-(3-fluorophenyl)-4-phenyl-4H-1,2,4-triazol-3-ylthio)methyl)benzoate as an antimicrobial compound” (KING FAISAL UNIVERSITY, priority 2023, dated 2024).
